Measured values: US7655671B2, “Morphinan derivatives, the quaternary ammonium salts thereof substituted in position 14, method for production and use thereof” (priority 2002, dated 2010)
Counter-ions that a name gives are not always drawn.

system: not given; experiment: not given

Structure (SMILES) | melting point
C=CCN1CC[C@]23c4c5ccc(OC)c4O[C@H]2C(=O)CC[C@@]3(OCCCc2ccccc2)C1C5 | 129 to 130 °C
CCN1CC[C@]23c4c5ccc(OC)c4O[C@H]2C(=O)CC[C@@]3(OCCCc2ccccc2)[C@H]1C5 | 95 to 101 °C
COc1ccc2c(c1O)[C@]13CCN(C)[C@H](C2)[C@]1(OCCCc1ccccc1)CCC(=O)C3 | > 258 °C (dec.)
COc1ccc2c(c1OC)[C@]13CCN(C)C(C2)[C@]1(OCCCc1ccccc1)CCC(=O)C3 | 110 to 115 °C
CCO[C@@]12CCC(=O)[C@@H](C)[C@@]13CCN(C)[C@@H]2Cc1ccc(OC)c(O)c13 | 122 to 129 °C
CCO[C@@]12CCC(=O)[C@@H](C)[C@@]13CCN(C)C2Cc1ccc(OC)c(OC)c13 | 135 to 141 °C
COc1ccc2c(c1OC)[C@]13CCN(C)C(C2)[C@]1(O)CCC(=O)[C@H]3C | 122 to 124 °C
COc1ccc2c(c1OC)[C@]13CCN(C)[C@H](C2)[C@]1(OCc1ccccc1)CCC(=O)[C@H]3C | 166 to 167 °C
CC[N@@+]1(C)CC[C@]23c4c5ccc(O)c4O[C@H]2C(=O)CC[C@@]3(OCCCc2ccccc2)[C@H]1C5.[I-] | 171 to 176 °C
CCCCOC12CCC(=O)C3(Cc4ccccc4)Oc4c(O)ccc5c4[C@@]31CC[N+](C)(C)C2C5.[I-] (stereo partly drawn) | 188 to 195 °C
C=CC[N@+]1(C)CC[C@]23c4c5ccc(O)c4OC2(Cc2ccccc2)C(=O)CCC3(OCCCC)C1C5.[I-] (stereo partly drawn) | 200 to 205 °C
CCCCO[C@@]12CCC(=O)[C@@H]3Oc4c(O)ccc5c4[C@@]31CC[N+](C)(C)[C@@H]2C5.[I-] | 180 to 185 °C
C[N@+]1(CC2CC2)CC[C@]23c4c5ccc(O)c4O[C@H]2C(=O)CC[C@@]3(OCc2ccccc2-c2ccccc2)[C@H]1C5.[I-] | 219 to 221 °C
C[N@+]1(CC2CC2)CC[C@]23c4c5ccc(O)c4O[C@H]2C(=O)CC[C@@]3(OCc2ccc(Cl)cc2)[C@H]1C5.[I-] | 214 to 219 °C
COC12CCC(=O)C3Oc4c(O)ccc5c4[C@@]31CC[N@+](C)(CCc1ccccc1)C2C5.[I-] (stereo partly drawn) | 180 to 181 °C
O=C1CC[C@@]2(OCc3ccccc3)[C@H]3Cc4ccc(O)c5c4[C@@]2(CCN3CC2CC2)[C@H]1O5 (as salt: hydrobromid) | > 210 °C (dec.)
Cc1ccccc1CO[C@@]12CCC(=O)[C@@H]3Oc4c(O)ccc5c4[C@@]31CCN(CC1CC1)[C@@H]2C5 (as salt: hydrochloride) | 198 to 200 °C
O=C1CC[C@@]2(OCc3ccccc3Cl)[C@H]3Cc4ccc(O)c5c4[C@@]2(CCN3CC2CC2)[C@H]1O5 (as salt: hydrochloride) | 165 to 168 °C
CCCCO[C@@]12CCC(=O)[C@@H]3Oc4c(O)ccc5c4[C@@]31CCN(CC1CC1)[C@@H]2C5 (as salt: hydrochloride) | 240 °C (dec.)

Structure (SMILES) | melting point
CC(C)CCO[C@@]12CCC(=O)[C@@H]3Oc4c(O)ccc5c4[C@@]31CCN(CC1CC1)[C@@H]2C5 (as salt: hydrochloride) | 168 to 170 °C
CC#COc1ccc2c3c1O[C@H]1C(=O)CC[C@@]4(OCc5cccc(Cl)c5)C(C2)N(C)CC[C@]314 (as salt: hydrochloride) | 145 to 150 °C
COc1ccc2c3c1O[C@H]1C(=O)CC[C@@]4(OCCCc5ccccc5)[C@@H](C2)N(CC2CCC2)CC[C@]314 (as salt: hydrochloride) | 128 to 133 °C
CCN1CC[C@]23c4c5ccc(O)c4O[C@H]2C(=O)CC[C@@]3(OCCCc2ccccc2)[C@H]1C5 (as salt: hydrochloride) | 178 to 180 °C
CCCN1CC[C@]23c4c5ccc(O)c4O[C@H]2C(=O)CC[C@@]3(OCCC(C)C)[C@H]1C5 (as salt: hydrochloride) | 175 to 185 °C (dec.)
COc1ccc2c(c1O)[C@]13CCN(C)[C@H](C2)[C@]1(OCc1ccccc1)CCC(=O)C3 (as salt: hydrochloride) | > 220 °C (dec.)
COc1ccc2c(c1OC)[C@]13CCN(C)[C@H](C2)[C@]1(OCc1ccccc1)CCC(=O)C3 (as salt: hydrochloride) | 140 to 145 °C
COc1ccc2c(c1O)[C@]13CCN(C)[C@H](C2)[C@]1(OCc1ccc2ccccc2c1)CCC(=O)C3 (as salt: hydrochloride) | 195 to 197 °C
COc1ccc2c3c1O[C@H]1C(=O)CC[C@@]4(OCCCc5ccccc5)[C@@H](C2)N(CC2CC2)CC[C@]314 (as salt: hydrochloride) | 130 to 133 °C
COc1ccc2c(c1OC)[C@]13CCN(C)[C@H](C2)[C@]1(OCc1ccc2ccccc2c1)CCC(=O)C3 (as salt: hydrochloride) | 165 to 170 °C
COc1ccc2c(c1O)[C@]13CCN(C)[C@H](C2)[C@]1(OCCCc1ccccc1)CCC(=O)[C@H]3C (as salt: hydrochloride) | > 210 °C (dec.)
COc1ccc2c3c1O[C@H]1C(=O)CC[C@@]4(OCCCc5ccccc5)C(C2)N(CC2CCCO2)CC[C@]314 (stereo partly drawn) (as salt: hydrochloride) | 121 to 123 °C
COc1ccc2c3c1O[C@H]1C(=O)CC[C@@]4(OCCCc5ccccc5)[C@@H](C2)N(CCc2ccccc2)CC[C@]314 (as salt: hydrochloride) [Compound 4, 4,5α-epoxy-3-methoxy-17-(2-phenylethyl)-14β-(3-phenylpropyloxy)morphinan-6-one hydrochloride] | 128 to 130 °C
O=C1CC[C@@]2(OCCCc3ccccc3)[C@H]3Cc4ccc(O)c5c4[C@@]2(CCN3CC2CCC2)[C@H]1O5 (as salt: hydrochloride) [Compound 7, 17-cyclobutylmethyl-4,5α-epoxy-3-hydroxy-14β-(3-phenylpropyloxy)morphinan-6-one hydrochloride] | > 227 °C (dec.)
O=C1CC[C@@]2(OCCCc3ccccc3)[C@H]3Cc4ccc(O)c5c4[C@@]2(CCN3CCc2ccccc2)[C@H]1O5 (as salt: hydrochloride) [Compound 9, 4,5α-epoxy-3-hydroxy-17-(2-phenylethyl)-14β-(3-phenylpropyloxy)morphinan-6-one hydrochloride] | > 218 °C (dec.)
O=C1CC[C@@]2(OCCCc3ccccc3)C3Cc4ccc(O)c5c4[C@@]2(CCN3CC2CCCO2)[C@H]1O5 (stereo partly drawn) (as salt: hydrochloride) [Compound 10, 4,5α-epoxy-17-[2-((R,S)-tetrahydrofuran-2-yl)methyl]-3-hydroxy-14β-(3-phenylpropyloxy)morphinan-6-one hydrochloride] | 170 to 172 °C
COc1ccc2c(c1O)[C@]13CCN(C)[C@H](C2)[C@]1(O)CCC(=O)[C@H]3C (stereo in doubt) | > 185 °C (dec.)
CCCCOc1cccc2c1[C@]13CC[N@@H+](CC4CC4)C(C2)[C@]1(OCCCc1ccccc1)CCC(=O)C3.[Cl-] (stereo in doubt) | 172 to 177 °C
COc1ccc2c3c1O[C@@]1(Cc4ccccc4)C(=O)C=C[C@@]4(OC)[C@@H](C2)N(C)CC[C@]314 (stereo in doubt) (as salt: hydrochloride) | 164 to 166 °C

molecular target: T1, μ-opioid receptors (Rattus norvegicus, UniProt P33535); experiment: Opioid receptor binding studies on rat's brain homogenisates with [3H]DAMGO
T1 construct: from tissue; host or cells: rat brain homogenate
T1 sequence (P33535 whole entry): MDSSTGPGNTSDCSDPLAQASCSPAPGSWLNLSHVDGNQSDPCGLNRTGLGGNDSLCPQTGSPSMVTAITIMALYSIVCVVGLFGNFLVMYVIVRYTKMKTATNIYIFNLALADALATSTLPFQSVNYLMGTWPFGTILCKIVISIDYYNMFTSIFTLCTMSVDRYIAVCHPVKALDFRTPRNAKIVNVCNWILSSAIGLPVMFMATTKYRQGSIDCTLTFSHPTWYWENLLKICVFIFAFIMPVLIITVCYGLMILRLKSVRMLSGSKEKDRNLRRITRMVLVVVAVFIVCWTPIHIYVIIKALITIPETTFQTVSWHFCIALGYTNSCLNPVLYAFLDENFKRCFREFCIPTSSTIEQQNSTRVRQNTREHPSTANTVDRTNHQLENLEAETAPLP

Structure (SMILES) | Ki
COc1cccc2c1[C@]13CCN(CC4CC4)[C@H](C2)[C@]1(OC)CCC(=O)C3 [Cyprodime, cyprodime, reference compound] | 23.7 nM
